Source: article PMC10786692 (The Journal of Clinical Investigation, 2024)

Legend:
Type in all cases: in vivo, human
[1] = system: peripheral blood immune cells; assay: Flow cytometry immune profiling of peripheral blood
Protocol: DNA-Seq of tumor and matched buffy coats was either by whole-exome sequencing or a custom-designed panel targeting all exons of genes of interest for 173 genes, including potential markers of sensitivity to ATRi. ACK-lysed whole blood or PBMCs were stained for flow cytometry using 8 multicolor panels. Plasma cytokines were assessed using the Bio-Plex Pro 27-Plex Panel (Bio-Rad). See Supplemental Methods for full information. […]
Peripheral blood was drawn into 8 mL EDTA tubes (Vacutainer, BD) and analyzed within 24
hours. ACK-lysed whole blood (for myeloid panel) or PBMC from density gradient centrifugation
(for lymphocyte panel) were used. Samples were surface-stained with antibodies for 30 mins at
4 OC. Samples were analyzed on a LSR Fortessa (BD Biosciences). FACS analyses were
CD56 PE-Dazzle 594 Biolegend
CD62L PerCp Cy5.5 Biolegend
NKp30 PerCp Cy5.5 Biolegend
TIGIT PerCp Cy5.5 eBioscience
CD45RO Pacific Blue Biolegend
CTLA-4 PE-Dazzle 594 Biolegend
CD57 PerCp Cy5.5 Biolegend
CD38 PE-Dazzle 594 Biolegend
CD11b ICRF44 PE Biolegend
HLA-DR L243 PerCP Cy5.5 Biolegend
CD16 3G8 APC-C7 Biolegend

[2] = Change in full blood count parameters with time (bone marrow toxicity); parameters: Lymphocyte change / Monocyte change / Hb change: unit not given here; details: for Neutrophil / Platelet: in 10^9/L (unit assumed)
Protocol: Patients were assessed weekly during cycle 1 and twice weekly thereafter, with safety assessments including blood hematology and biochemistry, physical examination, and toxicity scoring. Safety and tolerability were assessed using Common Terminology Criteria for Adverse Events (CTCAE), version 4.03.

[3] = system: tumor biopsies; assay: Stromal TIL count (H&E) and PD-L1 IHC in tumor biopsies
Description: Supplementary Pharmacodynamic methods
Formalin fixed paraffin-embedded tumor samples were used. […]
Quantification of tumor-infiltrating lymphocytes was done using a semi-automated method in QuPath (53). Scanned H&E sections were first segmented into tumor and stroma, using a random trees machine-learning classifier, for each tumor section. Nuclei were segmented using Stardist (54), then stromal nuclei were sorted by size (area <20 µm2) and circularity (>0.85), using small circular nuclei to approximate lymphocyte

[4] = system: tumor biopsies; assay: RNA-Seq differential gene expression / GSEA of paired tumor biopsies; details: after 2 weeks of ceralasertib
Protocol: Eight paired tumor biopsies were analyzed from 3 patients with PR, 4 with SD, and 1 NE, treated at various dose levels. Additional baseline samples were also available for 1 PR and 1 SD. When all samples were considered together, there were few differences in differential gene expression between baseline and on-treatment biopsies (Figure 5A). However, when responders (PR) were compared with nonresponders (SD), there were marked differences in both baseline and on-treatment gene expression (Figure 5, B–E) with clustering of a number of differentially expressed genes according to response (Supplemental Figure 8). […]
Formalin fixed paraffin-embedded tumor samples were used. […] H-score was calculated using HALO image analysis (Indica Labs). […] Nuclear ATM (Abcam 32420) IHC staining was carried out on the Ventana autostainer, using DAB detection and assessed by H-score, but samples were only deemed acceptable if lymphocyte staining (internal control) was at least 2+ (moderate) intensity. Cyclin E1 (Invitrogen HE12) staining was carried out on the Ventana autostainer, using DAB detection and the H-score was quantified using HALO image analysis (Indica Labs). Ki67 (Mib-1, Dako M7240) was scored by percent nuclear positivity using a global unweighted method, scoring 4 areas of 100 cells. […] Quantification of tumor-infiltrating lymphocytes was done using a semi-automated method in QuPath (53). […]

[5] = part B, 160mg (continuous), change from relative day 0, per patient and time point
[6] = part B, 160mg (continuous), per patient and time point
[7] = patient B138, part B, 160mg (intermittent), time point C1D1
[8] = patient B466, part B, 160mg (intermittent), C26D15, relative day 589
[9] = patient B466, part B, 160mg (intermittent), C26D15, relative day 589, change from Day 0
[10] = patient B466, part B, 160mg (intermittent), C27D15, relative day 603
[11] = patient B466, part B, 160mg (intermittent), C27D15, relative day 603, change from Day 0
[12] = patient B466, part B, 160mg (intermittent), C28D15, relative day 617
[13] = patient B466, part B, 160mg (intermittent), C28D15, relative day 617, change from Day 0
[14] = patient B466, part B, 160mg (intermittent), C29D15, relative day 645
[15] = patient B466, part B, 160mg (intermittent), C29D15, relative day 645, change from Day 0
[16] = patient B466, part B, 160mg (intermittent), C30D15, relative day 673
[17] = patient B466, part B, 160mg (intermittent), C30D15, relative day 673, change from Day 0
[18] = patient B466, part B, 160mg (intermittent), C31D15, relative day 701
[19] = patient B466, part B, 160mg (intermittent), C31D15, relative day 701, change from Day 0

C[C@@H]1COCCN1c1cc(C2([S@](C)(=N)=O)CC2)nc(-c2cc[nH]c3nccc2-3)n1 [ceralasertib]
CD8+ T cells in peripheral blood ([1]; 160 mg BD intermittent): trend toward increased
Classical and intermediate monocytes ([1]; 160 mg BD intermittent): reduction
Granulocytic MDSCs (gMDSC) ([1]; 160 mg BD intermittent): increased
Monocytic MDSCs (mMDSCs) ([1]; 160 mg BD intermittent): reduced
Naive and central memory CD8+ and CD4+ T cells ([1]; 160 mg BD intermittent): increased
PD-1–positive CD8+ T cells ([1]; 160 mg BD intermittent): reduction
Tregs in peripheral blood ([1]; 160 mg BD intermittent, 8 participants): reduction
Memory CD4-TEMRA cells ([1]; day 29): increased frequencies
NKG2A- and CD69-positive NK cells ([1]; normalized after the 2-week break): trend toward increased
Platelets and other hematological parameters, intermittent versus continuous schedule ([2]; 160 mg BD, recovering in the treatment break): more favorable
Hb change [2, 5]: 0
Lymphocyte change [2, 5]: 0
Monocyte change [2, 5]: 0
Platelet change [2, 5]: 0
Neutrophil [2, 6]: 3.29
Platelet [2, 6]: 210
Hb ([2]; part B, dose cohort 160mg (continuous), per patient and time point): 13.7
Hb [2, 7]: 11.5
Neutrophil [2, 7]: 8.54
Platelet [2, 7]: 213
Hb [2, 8]: 101 g/L
Lymphocyte change [2, 9]: 0.4
Monocyte change [2, 9]: 0.2
Platelet change [2, 9]: 125
Neutrophil [2, 8]: 4.5
Platelet [2, 8]: 571
Hb [2, 10]: 96
Lymphocyte change [2, 11]: 0
Monocyte change [2, 11]: -0.8
Platelet change [2, 11]: -198
Neutrophil [2, 10]: 2.7
Platelet [2, 10]: 248
Hb [2, 12]: 99
Lymphocyte change [2, 13]: 0
Monocyte change [2, 13]: 0.2
Platelet change [2, 13]: 142
Neutrophil [2, 12]: 2.7
Platelet [2, 12]: 588
Hb [2, 14]: 100 g/L
Lymphocyte change [2, 15]: 0.5
Monocyte change [2, 15]: -0.6
Platelet change [2, 15]: 143
Neutrophil [2, 14]: 4.6
Platelet [2, 14]: 589
Hb [2, 16]: 103 g/L
Lymphocyte change [2, 17]: 0.5
Monocyte change [2, 17]: 0.1
Platelet change [2, 17]: 118
Neutrophil [2, 16]: 3.9
Platelet [2, 16]: 564
Hb [2, 18]: 101 g/L
Monocyte change [2, 19]: 0.2
Platelet change [2, 19]: 172
Platelet [2, 18]: 618
Stromal TILs, paired samples ([3]; a responding patient (not in 3 nonresponders)): appeared to increase
Immune-cell infiltration and PD-L1 staining on immune cells in paired biopsies ([3]; responding patient, 40 mg BD, HNSCC, 2 weeks): increase
Inflammatory response genes (GSEA), on-treatment versus baseline tumor samples [4]: enrichment
